The text below walks through data of US20160052955A1, “[…] INHIBITORS FOR TREATING CANCERS” (SLOAN-KETTERING INSTITUTE FOR CANCER RESEARCH, priority 2013, published 2016).

Common to all, as to format: biochemical
The target of one experiment is T1, G9a (913-1913) (Homo sapiens, UniProt Q96KQ7).
T1 construct: G9a (913-1913)
T1 sequence (Q96KQ7 913-1193 limits assumed): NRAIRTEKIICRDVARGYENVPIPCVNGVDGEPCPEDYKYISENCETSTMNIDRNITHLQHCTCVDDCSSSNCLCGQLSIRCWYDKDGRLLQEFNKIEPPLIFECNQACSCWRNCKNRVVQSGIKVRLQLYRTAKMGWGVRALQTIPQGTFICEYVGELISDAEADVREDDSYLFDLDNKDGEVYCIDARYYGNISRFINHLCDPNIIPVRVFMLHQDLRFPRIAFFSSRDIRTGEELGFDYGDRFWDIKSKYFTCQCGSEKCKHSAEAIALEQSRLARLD
Briefly: Filter-paper methyltransferase assay, G9a. The settings on record: substrate H3 (1-21 aa), 20 nM enzyme, 1 h.

The next experiment has as its target T2, SUV39H2 (112-410) (Homo sapiens, UniProt Q9H5I1).
T2 construct: SUV39H2 (112-410)
Briefly: Filter-paper methyltransferase assay, SUV39H2. The settings on record: substrate H3 (1-21 aa), 5 nM enzyme, 4 h; read-out: IC50 SUV39H2.

The target of the next experiment is T3, PRMT3 (211-531) (Homo sapiens, UniProt O60678).
T3 construct: PRMT3 (211-531)
T3 sequence (O60678 211-531): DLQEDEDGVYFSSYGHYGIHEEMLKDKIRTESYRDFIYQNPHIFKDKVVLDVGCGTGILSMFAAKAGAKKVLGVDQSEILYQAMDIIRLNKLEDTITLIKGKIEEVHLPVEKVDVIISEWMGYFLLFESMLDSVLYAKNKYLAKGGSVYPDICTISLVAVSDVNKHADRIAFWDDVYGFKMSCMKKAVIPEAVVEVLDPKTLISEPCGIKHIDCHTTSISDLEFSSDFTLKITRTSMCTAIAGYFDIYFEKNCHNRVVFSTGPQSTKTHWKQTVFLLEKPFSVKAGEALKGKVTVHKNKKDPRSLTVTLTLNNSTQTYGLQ
Briefly: Filter-paper methyltransferase assay, PRMT3. The conditions noted are these: substrate RGG, 100 nM enzyme, 3 h; read-out: IC50 PRMT3.

The target in another experiment is T4, SET7/9 Full-length (Homo sapiens, UniProt Q8WTS6).
T4 construct: SET7/9 Full-length
T4 sequence (Q8WTS6 1-366): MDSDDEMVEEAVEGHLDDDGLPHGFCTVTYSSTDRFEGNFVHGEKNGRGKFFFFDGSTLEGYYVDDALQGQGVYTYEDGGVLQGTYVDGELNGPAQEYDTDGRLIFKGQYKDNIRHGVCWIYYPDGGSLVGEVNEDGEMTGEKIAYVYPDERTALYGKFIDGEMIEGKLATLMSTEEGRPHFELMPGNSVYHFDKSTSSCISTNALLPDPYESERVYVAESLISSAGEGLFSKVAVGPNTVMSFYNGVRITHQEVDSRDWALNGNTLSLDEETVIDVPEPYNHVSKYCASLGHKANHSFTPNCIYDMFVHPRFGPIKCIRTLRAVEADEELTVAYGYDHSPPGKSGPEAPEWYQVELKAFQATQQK
Nature of the experiment: Filter-paper methyltransferase assay, SET7/9. The conditions noted are these: substrate H3 (1-21 aa), 150 nM enzyme, 3 h.

A further experiment deals with T5, SMYD3 (Homo sapiens, UniProt Q9H7B4).
T5 sequence (Q9H7B4 1-428): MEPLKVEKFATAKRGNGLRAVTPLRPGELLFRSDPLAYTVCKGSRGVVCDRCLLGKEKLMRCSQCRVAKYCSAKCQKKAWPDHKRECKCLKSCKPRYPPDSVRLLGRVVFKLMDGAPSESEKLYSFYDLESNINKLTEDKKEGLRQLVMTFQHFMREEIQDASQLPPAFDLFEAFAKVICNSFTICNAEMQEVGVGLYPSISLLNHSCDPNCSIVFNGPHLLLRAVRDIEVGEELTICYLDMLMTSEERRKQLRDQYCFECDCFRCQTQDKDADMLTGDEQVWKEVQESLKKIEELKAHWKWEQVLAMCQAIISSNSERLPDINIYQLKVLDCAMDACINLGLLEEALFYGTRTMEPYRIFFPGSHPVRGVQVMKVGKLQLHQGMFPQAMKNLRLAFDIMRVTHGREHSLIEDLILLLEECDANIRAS
Briefly: Filter-paper methyltransferase assay, SMYD3. The conditions noted are these: substrate MAP3K2 (1-350 aa), 125 nM enzyme, 2 h. How it is done:
Methylation Reaction. The 20 μL methylation reaction was carried out at ambient temperature using two mixtures: A. 10 μl of enzyme mixture in the assay buffer containing 50 mM Hepes (pH=8.0), 0.005% Tween-20, 5 μg/ml BSA and 1 mM TCEP; B. 10 μl of a mixture of […], 0.15 μCi [^3H-Me]-SAM cofactor and 3 μM of the corresponding peptide substrate in the same assay buffer. After A and B were mixed for a designated time period, the reaction mixture was examined with our filter-paper assay.
Filter-paper Assay. This assay relies on Whatman P-81 filter paper, which binds peptides but not SAM. Protein Methyl Transferases (PMTs) transfer ^3H-Me of [^3H-Me]-SAM to peptide substrates and the resultant ^3H-methylated, filter-paper-bound peptide is quantified with a scintillation counter. […] The radioactivity was quantified by a Beckman LS6000IC liquid scintillation counter.
Dose-response Curves and IC50. […] After incubating the reaction mixture for the respective reaction time, the conversion was quantified with the filter paper assay as described above. The inhibition was expressed as the percentage between the high control (no inhibition) and the low control (no enzyme) as follows: Percentage Inhibition=[(high control−reading)/(high control−low control)]×100%. […]

T2 sequence (Q9H5I1 112-410): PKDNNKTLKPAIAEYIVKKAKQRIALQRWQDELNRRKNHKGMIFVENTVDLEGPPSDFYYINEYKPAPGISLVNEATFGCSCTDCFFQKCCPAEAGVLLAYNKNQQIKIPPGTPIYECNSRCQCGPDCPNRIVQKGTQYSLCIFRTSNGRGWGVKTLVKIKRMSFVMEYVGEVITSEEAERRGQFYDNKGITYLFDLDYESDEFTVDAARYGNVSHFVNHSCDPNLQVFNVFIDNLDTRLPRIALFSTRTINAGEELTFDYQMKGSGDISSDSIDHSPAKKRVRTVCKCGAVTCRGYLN

`CC(C)(C)c1ccc(NC(=O)NCCC[C@H](CNCc2ccccc2)C[C@H]2O[C@@H](n3cnc4c(N)ncnc43)[C@@H](O)C2O)cc1` (some centres unmarked) [Example 29]: the IC50 was over 100 µM on G9a (913-1913); about 10 µM on SUV39H2 (112-410); over 50 µM at PRMT3 (211-531); over 100 µM against SET7/9 Full-length; over 100 µM against SMYD3.
